Measured values as given in PMC7844219, “Antifibrotic effect of novel neutrophil gelatinase-associated lipocalin inhibitors in cardiac and renal disease models” (Scientific Reports, 2021).

Key:
[1] = test system: isolated hepatocytes from swiss mice; assay: Hepatotoxicity, thiazolyl blue tetrazolium bromide (MTT) colorimetric assay; type: cell-based, mouse
Experimental: (§1) Several parameters have been evaluated to determine ADME-Tox profile of the compounds. Two specific toxicity assays have been performed to assess hepatoxicity and cardiotoxicity. Hepatotoxicity was evaluated in isolated hepatocytes from swiss mice and determined by the thiazolyl blue tetrazolium bromide colorimetric assay (sigma, St Louis, MO, USA). Cardiotoxicity was evaluated using the commercially available Predictor hERG fluorescence polarization kit (Thermo Fisher Scientific, Illinois, USA). Several absorption, distribution, metabolism, and excretion (ADME) assays have been carried out. The following experiments were undertaken: stability in human microsomes, binding to human plasma protein, and CYP3A4 inhibition assay (Vivid CYP3A4 assay, Thermo Fisher Scientific, Illinois, USA). Physico-chemical properties were also assessed such as aqueous solubility and chemical stability.

Aqueous solubility = type: physicochemical
Experimental: as §1

hNGAL [2] = molecular target: T1, hNGAL (Homo sapiens, UniProt P80188); assay: hNGAL-induced IL6 and Col I secretion in human cardiac fibroblasts (ELISA); type: cell-based; design: % inhibition versus hNGAL on IL-6 secretion: concentration or dose not given beside the values; conditions: for IL-6 secretion: hNGAL-treated human cardiac fibroblasts, mean ± SEM
T1 construct: purchased R&D Systems
T1 sequence (P80188 21-198): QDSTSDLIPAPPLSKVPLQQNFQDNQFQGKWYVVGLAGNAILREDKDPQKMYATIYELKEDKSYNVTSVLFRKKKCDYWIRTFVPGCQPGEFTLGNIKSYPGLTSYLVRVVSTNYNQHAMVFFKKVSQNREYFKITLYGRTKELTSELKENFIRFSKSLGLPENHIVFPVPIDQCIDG
Experimental: (§2) Primary human cardiac fibroblasts (HCF) were obtained from Promocell (Heidelberg, Germany) and maintained in Fibroblast Media 3 following manufacturer’s instructions (Promocell). Cells were used between passages 5 and 7. Cells were stimulated with recombinant hNGAL (500 ng/mL, R&D Systems) or with TGFβ (10 ng/mL, R&D Systems) for 24 h. To assess cell proliferation the MTT test was used following provider’s instructions (Roche). For protein analysis. Primary Mouse Kidney Fibroblasts (MKF) were isolated from Wild Type (WT) mice. Briefly, 8 weeks old mice were sacrificed by cervical dislocation and kidneys were cleaned and rinsed in cold DPBS (Dulbecco's Phosphate-Buffered Saline). The renal cortex was minced and incubated in Dulbecco’s modified eagle medium/Nutrient mixture F-12 (DMEM/F12, Sigma) containing 1 mg/mL collagenase A (Roche) during 25 min at 37 °C. The digestion was inactivated by adding culture medium (DMEM/F12 + 10% FBS) then the cell suspension was passed through a 100-μm cell strainer. After centrifugation, the pellet (containing MKF) was diluted with culture medium then plated in 75 cm^2 culture flask. After 24 h MKF were washed with DPBS before replacement of fresh culture medium. Thereafter, culture medium was changed every 48 h. Once 70–80% confluent, MKF were trypsinized and plated in 12 or 6-well plates. For experimental use, MKF were starved with culture medium containing only 3% FBS. MKF were treated with mNGAL (500 ng/mL, R&D Systems) or with TGFβ (10 ng/mL, R&D Systems) for 6 h for gene expression analysis.
IL6 and collagen type I concentrations were measured in cardiac tissue and cell supernatants by ELISA according to the manufacturer's instructions (R&D Systems).

human plasma protein = assay: Binding to human plasma protein; type: in vitro ADME
Experimental: as §1

CYP3A4 = molecular target: T2, CYP3A4 (Homo sapiens, UniProt P08684); assay: CYP3A4 inhibition assay (Vivid CYP3A4 assay); type: in vitro ADME
T2 construct: purchased Thermo Fisher Scientific
T2 sequence (P08684 whole entry): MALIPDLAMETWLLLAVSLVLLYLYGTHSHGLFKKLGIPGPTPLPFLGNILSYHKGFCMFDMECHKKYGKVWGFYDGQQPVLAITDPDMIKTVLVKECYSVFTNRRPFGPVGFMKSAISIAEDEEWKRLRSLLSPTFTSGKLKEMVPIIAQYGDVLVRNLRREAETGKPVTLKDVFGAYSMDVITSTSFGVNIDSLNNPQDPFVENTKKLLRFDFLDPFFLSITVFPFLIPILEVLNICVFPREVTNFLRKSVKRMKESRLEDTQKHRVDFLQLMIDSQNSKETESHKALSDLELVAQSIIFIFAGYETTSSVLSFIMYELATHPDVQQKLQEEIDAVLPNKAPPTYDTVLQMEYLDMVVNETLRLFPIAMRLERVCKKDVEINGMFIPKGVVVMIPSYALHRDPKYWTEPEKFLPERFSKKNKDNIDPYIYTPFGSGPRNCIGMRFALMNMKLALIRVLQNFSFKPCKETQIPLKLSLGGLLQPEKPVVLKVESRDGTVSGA
Experimental: as §1

hNGAL [3] = molecular target: T1, hNGAL; assay: hNGAL-induced intracellular profibrotic protein levels in human cardiac fibroblasts (Western blot); type: cell-based; design: % inhibition versus hNGAL on Col I protein level / % inhibition versus hNGAL on Col III protein level / % inhibition versus hNGAL on Fibronectin protein level / % inhibition versus hNGAL on Galectin 3 protein level: concentration or dose not given beside the values
Experimental: as §2
Total protein aliquots of 20 μg were prepared from cardiac homogenates and HCF and electrophoresed on SDS polyacrylamide gels and transferred to Hybond-c Extra nitrocellulose membranes (Amersham Biosciences). Membranes were incubated with primary antibodies for: Collagen I (Santa Cruz; dilution 1:500), Collagen type III (Santa Cruz; dilution 1:500), fibronectin (Millipore, 1:500), Galectin-3 (Thermo, 1:1000), α-SMA (Sigma, 1:1000), CTGF (Santa Cruz, 1:200), CD68 (Abcam, 1:500), CD80 (Santa Cruz, 1:500), CD86 (Santa Cruz, 1:500). […] After densitometric analyses, optical density values were expressed as arbitrary units. Results are expressed as an n-fold increase over the values of the control group in densitometric arbitrary units.

hERG channel = molecular target: T3, hERG channel (Homo sapiens, UniProt Q12809); assay: Cardiotoxicity, Predictor hERG fluorescence polarization kit; type: binding
T3 construct: purchased Thermo Fisher Scientific
T3 sequence (Q12809 whole entry): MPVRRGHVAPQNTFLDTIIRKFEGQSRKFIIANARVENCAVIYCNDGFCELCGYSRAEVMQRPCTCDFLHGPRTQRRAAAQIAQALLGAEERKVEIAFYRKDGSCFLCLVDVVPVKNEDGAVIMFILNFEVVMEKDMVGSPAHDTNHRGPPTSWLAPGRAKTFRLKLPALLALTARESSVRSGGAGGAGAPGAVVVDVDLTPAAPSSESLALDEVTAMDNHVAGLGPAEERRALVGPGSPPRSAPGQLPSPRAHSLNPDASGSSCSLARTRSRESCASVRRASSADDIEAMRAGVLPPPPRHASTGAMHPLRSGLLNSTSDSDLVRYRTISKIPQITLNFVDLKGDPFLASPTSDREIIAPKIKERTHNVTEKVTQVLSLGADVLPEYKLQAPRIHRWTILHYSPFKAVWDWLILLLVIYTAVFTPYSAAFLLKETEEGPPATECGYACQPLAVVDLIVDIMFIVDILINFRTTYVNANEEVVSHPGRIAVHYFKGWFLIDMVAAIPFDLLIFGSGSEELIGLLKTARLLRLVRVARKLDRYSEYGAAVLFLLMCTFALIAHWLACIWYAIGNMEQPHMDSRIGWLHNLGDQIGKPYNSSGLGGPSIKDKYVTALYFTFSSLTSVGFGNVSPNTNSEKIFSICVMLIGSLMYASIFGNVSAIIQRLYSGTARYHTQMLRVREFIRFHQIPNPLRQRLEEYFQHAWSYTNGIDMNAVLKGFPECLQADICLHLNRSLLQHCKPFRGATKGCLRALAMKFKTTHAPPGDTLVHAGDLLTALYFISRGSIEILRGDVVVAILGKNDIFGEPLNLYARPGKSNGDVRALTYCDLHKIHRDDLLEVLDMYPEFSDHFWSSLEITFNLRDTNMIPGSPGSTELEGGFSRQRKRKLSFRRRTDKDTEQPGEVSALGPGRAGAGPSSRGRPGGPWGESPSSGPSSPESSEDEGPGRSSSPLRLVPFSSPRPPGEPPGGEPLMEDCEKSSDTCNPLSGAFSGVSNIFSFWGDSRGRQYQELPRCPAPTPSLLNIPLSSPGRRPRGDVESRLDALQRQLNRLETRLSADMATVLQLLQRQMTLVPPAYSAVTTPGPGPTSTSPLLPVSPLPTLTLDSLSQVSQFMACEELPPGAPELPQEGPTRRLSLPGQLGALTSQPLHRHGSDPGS
Experimental: as §1

Chemical stability = type: physicochemical; conditions: Table S5
Experimental: as §1

hNGAL [4] = molecular target: T1, hNGAL; assay: Cell proliferation (MTT) in hNGAL-treated human cardiac fibroblasts; type: cell-based
Experimental: as §2
Cell proliferation was assessed using the MTT Proliferation Assay (Sigma).

[5] = 10 µM, human cardiac fibroblasts, Fig. 1C
[6] = Table S4, second generation compounds and parents, Control 1.00, NGAL 1.45
[7] = Table S4, second generation compounds and parents, human cardiac fibroblasts
[8] = Table S2, human cardiac fibroblasts

CCS(=O)(=O)c1ccc2oc(SCc3cn4c(C)cc(C)nc4n3)nc2c1 [GPZ058225]
Hepatotoxicity (MTT) [1]: > 0.1 mM
Hepatotoxicity ([1]; Table S5, MTT): > 100 µM
Solubility in aqueous buffers, in words (Aqueous solubility): mild solubility problems
Solubility test (Aqueous solubility): 63%
Aquous solubility % (Aqueous solubility; Table S5): 63.46%
Increase in IL6 secretion induced by NGAL (hNGAL [2]; 1 µM, human cardiac fibroblasts, Fig. S3): did not prevent
NGAL-induced Col I secretion, in words (hNGAL [2]; [5]): fully inhibited
NGAL-induced IL6 secretion, in words (hNGAL [2]; [5]): fully inhibited
IL-6 secretion (hNGAL [2]; Table S1, first generation compounds, Control 1.0 ± 0.1, NGAL 2.21 ± 0.2): 0.99 ± 0.3
% inhibition versus hNGAL on IL-6 secretion (hNGAL [2]; Table S1, first generation compounds, human cardiac fibroblasts): 55.2%
IL-6 secretion (hNGAL [2]; [6]): 0.72 ± 0.02
% inhibition versus hNGAL on IL-6 secretion (hNGAL [2]; [7]): 50.4%
Inhibitor effect on hNGAL-induced IL6 secretion, in words (hNGAL [2]; human cardiac fibroblasts, text on Tables S1 and S4): important inhibitor effect
Plasma protein binding (PPB), in words (human plasma protein): within an acceptance range
hPPB% (human plasma protein; Table S5, human plasma protein binding): 89.11%
CYP3A4 enzyme activity inhibited in a competition assay (CYP3A4): 32%
CyP 3A4 Inhibition % (100= no inhibition) (CYP3A4; Table S5): 68.07 ± 1.52%
hNGAL-induced expression of intracellular profibrotic proteins (Col I, Col III, fibronectin, Gal3), in words (hNGAL [3]; 10 µM, human cardiac fibroblasts, Fig. 1D): blocked
Col III synthesis (protein level) (hNGAL [3]; Table S2, hNGAL-treated human cardiac fibroblasts, Control 1.0, NGAL 1.67, mean ± SEM): 1.05 ± 0.1
Fibronectin synthesis (protein level) (hNGAL [3]; Table S2, hNGAL-treated human cardiac fibroblasts, Control 1.0, NGAL 1.8, mean ± SEM): 0.62 ± 0.1
Col I synthesis (protein level) (hNGAL [3]; Table S2, hNGAL-treated human cardiac fibroblasts, Control 1.0, NGAL 2.03, mean ± SEM): 1.27 ± 0.1
Galectin-3 synthesis (protein level) (hNGAL [3]; Table S2, hNGAL-treated human cardiac fibroblasts, Control 1.0, NGAL 2.1, mean ± SEM): 1.0 ± 0.2
% inhibition versus hNGAL on Col I protein level (hNGAL [3]; [8]): 37.5%
% inhibition versus hNGAL on Col III protein level (hNGAL [3]; [8]): 37.1%
% inhibition versus hNGAL on Fibronectin protein level (hNGAL [3]; [8]): 65.5%
% inhibition versus hNGAL on Galectin 3 protein level (hNGAL [3]; [8]): 52.3%
Cardiotoxicity (hERG predictor assay), in words (hERG channel): did not block the hERG channel
Chemical Stability % (Chemical stability): 92.2%
hNGAL-induced cell proliferation, in words (hNGAL [4]; 10 µM, Fig. 1E): blocked
Dose–response on proliferation induced by NGAL (hNGAL [4]; Fig. S2): able to block the proliferative effects of NGAL at 1 and 10 µM, but not at lower concentrations

O=C(Nc1nc2cc(F)c(F)cc2s1)c1cn2cccnc2n1 [GPZ278618]
IL-6 secretion (hNGAL [2]; [6]): 0.86± 0.02
% inhibition versus hNGAL on IL-6 secretion (hNGAL [2]; [7]): 40.1%

CC(=O)c1ccc(S(=O)(=O)Nc2ccccc2-n2cccn2)cc1 [GPZ478519]
IL-6 secretion (hNGAL [2]; [6]): 0.69± 0.02
% inhibition versus hNGAL on IL-6 secretion (hNGAL [2]; [7]): 52.4%

CC(=O)c1cccc(S(=O)(=O)NCc2ccccc2Cn2cccn2)c1 [GPZ505884]
IL-6 secretion (hNGAL [2]; [6]): 0.83± 0.02
% inhibition versus hNGAL on IL-6 secretion (hNGAL [2]; [7]): 42.8%

CC(=O)c1cccc(S(=O)(=O)NCc2ccccc2-c2ccc(CN(C)C)cc2)c1 [GPZ642292]
IL-6 secretion (hNGAL [2]; [6]): 0.64± 0.02
% inhibition versus hNGAL on IL-6 secretion (hNGAL [2]; [7]): 55.9%

Cc1cc(C)n2cc(CSc3nc4ccccc4[nH]3)nc2n1 [GPZ743042]
IL-6 secretion (hNGAL [2]; [6]): 0.94 ± 0.03
% inhibition versus hNGAL on IL-6 secretion (hNGAL [2]; [7]): 35.2%

N#Cc1cccc(S(=O)(=O)NCc2cccc(-n3cccn3)c2)c1 [GPZ778195]
IL-6 secretion (hNGAL [2]; [6]): 0.88± 0.04
% inhibition versus hNGAL on IL-6 secretion (hNGAL [2]; [7]): 39.3%

CC(=O)c1cccc(S(=O)(=O)NCc2ccccc2-c2ccsc2)c1 [GPZ863205]
IL-6 secretion (hNGAL [2]; [6]): 0.93± 0.03
% inhibition versus hNGAL on IL-6 secretion (hNGAL [2]; [7]): 35.9%

CCN1CCN(Cc2ccccc2CNS(=O)(=O)c2cccc(C(C)=O)c2)CC1 [GPZ913629]
IL-6 secretion (hNGAL [2]; [6]): 0.93± 0.02
% inhibition versus hNGAL on IL-6 secretion (hNGAL [2]; [7]): 35.9%
